Values joined by “and” are separate entries in the source; they are usually repeats but may differ in a detail not shown here. Equal entries are not always repeated. Where two headings read alike, the source gives them in different places.

Holding throughout (type): in vivo
The subject of one data set is Digitaria sanguinalis. In words: Herbicidal action, visual scoring. To be noted: post-emergence, scoring 4 weeks after application. As for the experimental part:
(§1) The herbicidal activity of the active substances or active substance mixtures was scored visually with the aid of the treated parcels in comparison with untreated control parcels. Damage to and development of all above-ground parts of plants was recorded here. Scoring was carried out on a percentage scale (100% action=all plants died; 50% action=50% of the plants and green plant parts died; 0% action=no discernible action=like control parcels. The mean of the scoring values of 4 parcels in each case was taken.
(§2) Seeds or rhizome pieces of monocotyledonous and dicotyledonous weeds are placed in sandy loam soil in pots, covered with soil and grown in the greenhouse under good growth conditions (temperature, humidity, water supply). Three weeks after sowing, the test plants in the three-leaf stage are treated with the compositions according to the invention. The compositions according to the invention which are formulated as wettable powders or as emulsion concentrates are sprayed in various dosages on the green parts of the plants at an application rate of 600 to 800 l of water/ha (converted). After the test plants have remained in the greenhouse for about 3 to 4 weeks under optimal growth conditions, the effect of the products is scored visually by comparison with untreated controls. When applied post-emergence, too, the compositions according to the invention have a good herbicidal activity against a broad spectrum of economically important grass weeds and broad-leaved weeds.
(§3) Crop plants were raised outdoors under natural outdoor conditions on plots in which seeds or rhizome sections of typical harmful plants had been sown or the natural weed infestation was used. The treatment with the compositions according to the invention was carried out after the emergence of the harmful plants and the crop plants, as a rule in the 2 to 4-leaf stage; in some cases (as indicated) the application of individual active substances or active substance combinations was carried out pre-emergence (cf. Example 1) or as a sequence treatment, in some cases pre-emergence and/or post-emergence.
(§4) After the application, e.g. 2, 4, 6 and 8 weeks after application, the action of the preparations was scored visually in comparison with untreated controls (cf. score in Example 1). […] The crop plants, however, were not damaged or were only insignificantly damaged as a result of the treatment with the herbicidal compositions.

A further data set concerns corn. To be noted: post-emergence. As for the experimental part:
as §1, §3, §4

Data set [1] relates to POLCO = Polygonum convolvulus. The data set can be described thus: Herbicidal action, visual scoring. Particulars: Table 15; post-emergence; scoring 4 weeks after application; g of A.S./ha by row: r6 30, r7 15, r8 7.5, r9 900, r10 450, r12 600, r14 20, r16 30 + 450, r17 7.5 + 900, r18 30 + 600, r19 7.5 + 600, r20 15 + 20, r21 7.5 + 20. As for the experimental part:
The herbicidal activity of the active substances or active substance mixtures was scored visually with the aid of the treated parcels in comparison with untreated control parcels. Damage to and development of all above-ground parts of plants was recorded here. Scoring was carried out on a percentage scale (100% action=all plants died; 50% action=50% of the plants and green plant parts died; 0% action=no discernible action=like control parcels. The mean of the scoring values of 4 parcels in each case was taken. […]
as §3, §4

For a further data set, the system named is SOLNI. The data set can be described thus: Herbicidal action, visual scoring. To be noted: Table 10, post-emergence, scoring 3 weeks after application, g of A.S./ha by row: r7 120, r8 60, r9 30, r10 15, r11 12, r12 6, r13 3, r14 30 + 6, r16 15 + 6, r18 30 + 3. The method, then: as §1, §2, §3, §4
Data set [2] has as its system CHEAL = Chenopodium album. In words: Herbicidal action, visual scoring. To be noted: Table 9, post-emergence, scoring 3 weeks after application, g of A.S./ha by row: r6 120, r7 60, r8 30, r9 15, r10 60, r11 30, r12 15, r13 30 + 30, r14 15 + 30, r15 30 + 15, r16 2000, r17 1000, r18 500, r19 30 + 1000, r20 15 + 1000, r21 30 + 500. The method, then: as §1, §2, §3, §4

A further data set has as its system Ipomoea purpurea. The data set can be described thus: Herbicidal action, visual scoring. To be noted: Table 1, post-emergence, scoring 3 weeks after application, g of A.S./ha: 45, 60, 75, 1000, 2000, 3000, 75 + 1000. The method, then:
as §1, §2, §3, §4

The mark [3] stands for this setting: Table 9, scoring 3 weeks after application, g of A.S./ha by row: r6 120, r7 60, r8 30, r9 15, r10 60, r11 30, r12 15, r13 30 + 30, r14 15 + 30, r15 30 + 15, r16 2000, r17 1000, r18 500, r19 30 + 1000, r20 15 + 1000, r21 30 + 500.

For the compound `CCc1cccc(CC)c1N(COC)C(=O)CCl` [(B1.1.1), alachlor], the “Herbicidal action Digitaria sanguinalis” value is 40% in the data set with Digitaria sanguinalis (Table 17, g of A.S./ha by row: r6 60, r7 30, r8 15, r9 2000, r10 1000, r11 500, r12 15 + 1000, r13 30 + 500, r14 2000, r15 1000, r16 500, r17 30 + 500, r18 15 + 500, r19 15 + 1000, 500 g A.S./ha); 50% in the data set with Digitaria sanguinalis (Table 17, g of A.S./ha by row: r6 60, r7 30, r8 15, r9 2000, r10 1000, r11 500, r12 15 + 1000, r13 30 + 500, r14 2000, r15 1000, r16 500, r17 30 + 500, r18 15 + 500, r19 15 + 1000, 1000 g A.S./ha); 65% with Digitaria sanguinalis (Table 17, g of A.S./ha by row: r6 60, r7 30, r8 15, r9 2000, r10 1000, r11 500, r12 15 + 1000, r13 30 + 500, r14 2000, r15 1000, r16 500, r17 30 + 500, r18 15 + 500, r19 15 + 1000, 2000 g A.S./ha). In addition, in the data set with corn (Table 17, scoring 4 weeks after application, g of A.S./ha by row: r6 60, r7 30, r8 15, r9 2000, r10 1000, r11 500, r12 15 + 1000, r13 30 + 500, r14 2000, r15 1000, r16 500, r17 30 + 500, r18 15 + 500, r19 15 + 1000), the Damage on corn was found to be 0%.
For `Cc1cc(Cl)ccc1OCC(=O)O` [(B2.5.2), MCPA], the Damage on corn in the data set with corn (Table 16, scoring 4 weeks after application, g of A.S./ha: 60, 30, 15, 1500, 750, 375, 30 + 750, 30 + 375, 15 + 750, 60 + 375) is 6% and 0% and 10%.
Turning to `CCNc1nc(Cl)nc(NC(C)(C)C#N)n1` [(B1.2.3), cyanazine], the Damage on corn with corn (Table 14, scoring 4 weeks after application, g of A.S./ha by row: r6 30, r7 15, r8 7.5, r9 2200, r10 1100, r11 550, r12 7.5 + 2200, r13 7.5 + 1100) was 12% and 5% and 15%.
In the case of `CS(=O)(=O)c1cc(Cl)ccc1C(=O)c1cnoc1C1CC1` [(B1.4.6), isoxachlortole], the “Herbicidal action Digitaria sanguinalis” value in the data set on Digitaria sanguinalis (Table 18, g of A.S./ha by row: r6 45, r7 22.5, r8 12.5, r9 25, r10 12.5, r12 12.5 + 25, r13 12.5 + 12.5, 12.5 g of A.S./ha) is 30%; in the data set on Digitaria sanguinalis (Table 18, g of A.S./ha by row: r6 45, r7 22.5, r8 12.5, r9 25, r10 12.5, r12 12.5 + 25, r13 12.5 + 12.5, 25 g of A.S./ha), 45%. Besides, the Damage on corn in the data set on corn (Table 18, scoring 4 weeks after application, g of A.S./ha by row: r6 45, r7 22.5, r8 12.5, r9 25, r12 12.5 + 25, r13 12.5 + 12.5) worked out at 12%.
As for `COc1nc(NC(=O)NS(=O)(=O)c2ccccc2C(F)(F)F)nc(C(F)(F)F)n1` [(B2.4.5), tritosulfuron], in the data set on corn (Table 7, scoring 3 weeks after application, g of A.S./ha by row: r6 15, r7 30, r8 45, r9 60, r10 2.5, r11 5, r12 15 + 2.5, r13 15 + 5), the Damage on corn turned out to be 1%.
As to `CC(C)N(C(=O)COc1nnc(C(F)(F)F)s1)c1ccc(F)cc1` [(B1.2.7), fluthiamid], in data set [1], the “Herbicidal action Polygonum convolvulus” value is 25%. Also, in the data set with corn (Table 15, scoring 4 weeks after application, g of A.S./ha by row: r6 30, r7 15, r8 7.5, r9 900, r10 450, r12 600, r14 20, r16 30 + 450, r17 7.5 + 900, r18 30 + 600, r19 7.5 + 600, r20 15 + 20, r21 7.5 + 20), the Damage on corn was determined as 0%.
In the case of `COc1cc(OC)n2nc(S(=O)(=O)Nc3c(Cl)ccc(C)c3Cl)nc2n1` [(B1.5.1), metosulam], in data set [1], the “Herbicidal action Polygonum convolvulus” value stood at 55%.
Take `O=C(O)c1nc(Cl)ccc1Cl` [(B2.3.6), clopyralid]: in the data set on corn (Table 19, scoring 3 weeks after application, g of A.S./ha by row: r6 60, r7 30, r8 15, r9 120, r10 60, r11 30, r12 30 + 30, r13 30 + 60, r14 60 + 30), the Damage on corn was 0% and 3%.
For the compound `CCS(=O)(=O)c1cccnc1S(=O)(=O)NC(=O)Nc1nc(OC)cc(OC)n1` [(B1.3.2), rimsulfuron], the “Herbicidal action SOLNI” value was 35% in the data set with SOLNI (3 g active substance per ha), 45% in the data set with SOLNI (6 g active substance per ha) and 60% in the data set with SOLNI (12 g active substance per ha).
With `COc1cc(OC)nc(NC(=O)NS(=O)(=O)c2ncccc2C(=O)N(C)C)n1` [(B1.3.1), nicosulfuron], the “Herbicidal action CHEAL” value in data set [2] (15 g active substance/ha) is 55%; in data set [2] (30 g active substance/ha) it was 65%; in data set [2] (60 g active substance/ha), 90%. In the data set on corn (setting [3]), the Damage on corn is 0%.
Turning to `CCc1cccc(C)c1N(C(=O)CCl)C(C)COC` (stereo not shown) [(B1.1.2), metolachlor], the “Herbicidal action CHEAL” value in data set [2] was 0%. For the same compound, the Damage on corn in the data set on corn (setting [3]) is listed as 0%.
As to `CCNc1nc(Cl)nc(NC(C)C)n1` [(B1.2.1), atrazine], the “Herbicidal action against Ipomoea purpurea” value is 70% in the data set with Ipomoea purpurea (1000 g active substance per ha), 85% in the data set with Ipomoea purpurea (2000 g active substance per ha) and 90% in the data set with Ipomoea purpurea (3000 g active substance per ha). Besides, in the data set on corn (Table 1, scoring 3 weeks after application, g of A.S./ha: 45, 60, 75, 1000, 2000, 3000, 75 + 1000), the Damage on corn is recorded as 0%.
For the compound `CS(=O)(=O)c1ccc(C(=O)C2C(=O)CCCC2=O)c(Cl)c1` [(B1.4.2), sulcotrione], the Damage on corn with corn (Table 11, scoring 3 weeks after application, g of A.S./ha by row: r6 120, r7 60, r8 30, r9 15, r10 2000, r11 1000, r12 500, r13 30 + 1000, r14 15 + 1000, r15 30 + 500, r16 600, r17 300, r18 150, r19 30 + 300, r20 15 + 300, r21 30 + 150) worked out at 0%.
